The results in this text go back to patent US20080260720A1, “Systems and Methods for Inhibiting Metastasis” (priority 2004, published 2008).

Type in all cases: cell-based
The test system of one assay is MB-MDA-231 cell line. Briefly: Matrigel invasion assay, MB-MDA-231. As to conditions: 50 nM thrombin, 24 hrs, MB-MDA-231 cells, Cyquant quantification. As for the experimental part: (§1) To examine the role of G12/13 in breast cancer invasion, the Matrigel (BD biosciences) invasion assay was used. In this assay, transwell migration chambers are coated with Matrigel, an artificial extracellular matrix believed to closely resemble basal lamina in structure and content. Cells are then plated on top of this matrix and allowed to invade the matrigel and migrate to the underside of the membrane. The cells that reach the underside of the membrane are then quantified as a measure of invasiveness. This system serves as a model for primary tumor invasion, as the matrix mimics the microenvironment through which the cancer cells must pass in order to metastasize.
(§2) MB-MDA-231 and MCF-7 cells were plated on top of a Matrigel (BD Biosciences) coated polycarbonate filter (8.0 μM pore). The filter was transferred to a chamber containing 0.1% BSA-DMEM and the cells were allowed to adhere for 1 hr. The cells were then stimulated with 50 nM thrombin. After 24 hrs, the cells were detached from the underside of the filter and quantified using the Cyquant (Molecular Probes) cell enmieration kit. […] Using retrovirus, stable MB-MDA-231 cell lines expressing p115RGS, RGS2 (see text) or the appropriate vector control were generated. Invasion assays were then preformed as in (a) using these cells.

Another assay deals with MCF-7 cell line. Briefly: Matrigel invasion assay, MCF-7. As to conditions: 50 nM thrombin, 24 hrs, MCF-7 cells, Cyquant quantification. As for the experimental part:
as §1, §2

The subject of assay [1] is MB-MDA-435 breast cancer cells expressing E-cadherin. Briefly: Wound-filling (cell migration) assay, G12-stimulated cell escape. Particulars: MB-MDA-435 cells with E-cadherin and mutationally-activated Gα12; free-migrating cells 39 h after wounding. As for the experimental part: To determine whether G12 proteins could influence cadherin-mediated suppression of cell migration, wound-filling assays using MB-MDA-435 breast cancer cells expressing E-cadherin were conducted. This system is believed to mimic the escape of potentially metastatic cells from the primary tumor. When a monolayer of cells was wounded by scraping, MB-MDA-435 cells lacking E-cadherin (435-puro) frequently broke free from the advancing “wall” of cells and migrated into the wound area as lone or “free migrating” cells.
Wound-filling assays were performed using MB-MDA-435 cells harboring E-cadherin (435-E-cad) or a control plasmid (435-puro), that were infected 40 h earlier with recombinant adenoviruses expressing either mutationally-activated Gα12 (12^QL) or mutationally-activated Gαi2 (control). Cells were visualized by fluorescence microscopy for GFP expression (indicative of successful adenovirus infection). Cells were photographed at time of initial wounding, performed by scraping cell monolayers with a pipette tip and marling the wounded areas for orientation. Marked areas were re-photographed 39 h after wounding (lower panels). […] Data from 5 randomly selected view fields are presented as mean ±S.E. for each condition. E-cadherin lacking the G12-interacting region fails to suppress cell migration. […]

As to thrombin, the figures for the “invasion through Matrigel” value in the assay on MB-MDA-231 cell line and in the assay with MCF-7 cell line were “stimulates invasion” and “not”, respectively. Take `C[C@@H](N)[C@H]1CC[C@H](C(=O)Nc2ccncc2)CC1` [Y27632]: in assay [1], the “effect on the G12-stimulated cell escape” value is “no effect”.
